Source: publication PMC8222254, “Self-assembly of an anion receptor with metal-dependent kinase inhibition and potent in vitro anti-cancer properties” (Nature Communications, 2021)
Several values for one entry are separate records, joined by “and”; a condition that tells them apart may be missing. Identical values can stand only once.

What was measured:
Test in all cases: Kinase inhibition screen, cell-free 33P ATP assay at 10 μM
Format in all cases: biochemical
[1] = target: 140 purified human kinases (Homo sapiens, UniProt Q8N4C8)
Chain of 140 purified human kinases (Homo sapiens, UniProt Q8N4C8) (Q8N4C8 whole entry): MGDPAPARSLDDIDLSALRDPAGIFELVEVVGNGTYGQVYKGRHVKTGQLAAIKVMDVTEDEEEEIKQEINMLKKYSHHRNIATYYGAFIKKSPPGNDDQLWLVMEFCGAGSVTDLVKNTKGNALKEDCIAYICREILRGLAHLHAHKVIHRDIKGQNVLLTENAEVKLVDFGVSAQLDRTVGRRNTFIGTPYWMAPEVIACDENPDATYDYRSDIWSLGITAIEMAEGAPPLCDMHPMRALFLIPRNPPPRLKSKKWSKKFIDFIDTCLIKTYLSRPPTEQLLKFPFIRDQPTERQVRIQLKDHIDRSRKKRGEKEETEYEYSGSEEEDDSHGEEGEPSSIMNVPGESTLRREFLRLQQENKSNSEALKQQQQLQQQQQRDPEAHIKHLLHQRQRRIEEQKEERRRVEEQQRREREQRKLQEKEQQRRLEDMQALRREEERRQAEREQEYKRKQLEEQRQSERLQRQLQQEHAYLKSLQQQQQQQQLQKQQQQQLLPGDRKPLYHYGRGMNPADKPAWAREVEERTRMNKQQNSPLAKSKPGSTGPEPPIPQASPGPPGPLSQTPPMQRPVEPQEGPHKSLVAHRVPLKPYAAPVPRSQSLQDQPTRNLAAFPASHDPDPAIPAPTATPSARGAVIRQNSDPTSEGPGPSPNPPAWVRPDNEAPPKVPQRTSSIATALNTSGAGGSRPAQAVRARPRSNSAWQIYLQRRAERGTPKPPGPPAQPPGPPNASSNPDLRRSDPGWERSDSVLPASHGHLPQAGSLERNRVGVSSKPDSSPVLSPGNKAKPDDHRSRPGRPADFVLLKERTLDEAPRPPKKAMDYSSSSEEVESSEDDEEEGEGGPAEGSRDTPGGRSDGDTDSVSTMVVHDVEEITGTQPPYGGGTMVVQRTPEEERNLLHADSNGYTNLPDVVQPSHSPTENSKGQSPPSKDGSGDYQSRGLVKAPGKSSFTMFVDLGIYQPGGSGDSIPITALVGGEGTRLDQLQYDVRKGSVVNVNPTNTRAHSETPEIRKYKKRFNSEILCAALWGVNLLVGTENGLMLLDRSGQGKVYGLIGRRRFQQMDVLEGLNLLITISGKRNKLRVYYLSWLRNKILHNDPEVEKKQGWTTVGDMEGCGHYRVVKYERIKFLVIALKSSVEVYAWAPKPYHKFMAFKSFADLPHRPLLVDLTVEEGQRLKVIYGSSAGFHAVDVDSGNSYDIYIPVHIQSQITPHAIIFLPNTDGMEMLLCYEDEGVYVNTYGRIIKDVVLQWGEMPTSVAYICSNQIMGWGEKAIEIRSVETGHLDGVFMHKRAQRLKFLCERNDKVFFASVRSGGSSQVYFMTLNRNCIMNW
How it was run: (§1)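 Radiometric ^33P ATP cell-free format with purified enzymes; both complexes run at 10 μM in duplicate, results plotted on a kinome map via HGNC symbols.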

[2] = target: T1, 140 purified human kinases (Homo sapiens, UniProt Q9NWZ3)
T1 sequence (Q9NWZ3 1-460): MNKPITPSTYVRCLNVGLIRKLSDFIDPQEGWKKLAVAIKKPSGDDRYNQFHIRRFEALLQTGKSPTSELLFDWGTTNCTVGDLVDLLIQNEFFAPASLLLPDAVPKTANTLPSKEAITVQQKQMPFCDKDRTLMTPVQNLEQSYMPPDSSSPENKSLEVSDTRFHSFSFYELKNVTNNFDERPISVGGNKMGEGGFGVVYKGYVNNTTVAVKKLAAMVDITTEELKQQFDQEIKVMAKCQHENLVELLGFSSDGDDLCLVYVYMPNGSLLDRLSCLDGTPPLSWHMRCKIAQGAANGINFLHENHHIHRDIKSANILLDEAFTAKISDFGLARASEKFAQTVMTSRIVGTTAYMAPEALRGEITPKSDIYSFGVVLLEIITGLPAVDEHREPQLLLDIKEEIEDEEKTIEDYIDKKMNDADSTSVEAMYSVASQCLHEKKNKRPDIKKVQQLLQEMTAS
How it was run: as §1

[3] = target: 140 purified human kinases (Homo sapiens, UniProt Q9Y4K4)
Chain of 140 purified human kinases (Homo sapiens, UniProt Q9Y4K4) (Q9Y4K4 whole entry): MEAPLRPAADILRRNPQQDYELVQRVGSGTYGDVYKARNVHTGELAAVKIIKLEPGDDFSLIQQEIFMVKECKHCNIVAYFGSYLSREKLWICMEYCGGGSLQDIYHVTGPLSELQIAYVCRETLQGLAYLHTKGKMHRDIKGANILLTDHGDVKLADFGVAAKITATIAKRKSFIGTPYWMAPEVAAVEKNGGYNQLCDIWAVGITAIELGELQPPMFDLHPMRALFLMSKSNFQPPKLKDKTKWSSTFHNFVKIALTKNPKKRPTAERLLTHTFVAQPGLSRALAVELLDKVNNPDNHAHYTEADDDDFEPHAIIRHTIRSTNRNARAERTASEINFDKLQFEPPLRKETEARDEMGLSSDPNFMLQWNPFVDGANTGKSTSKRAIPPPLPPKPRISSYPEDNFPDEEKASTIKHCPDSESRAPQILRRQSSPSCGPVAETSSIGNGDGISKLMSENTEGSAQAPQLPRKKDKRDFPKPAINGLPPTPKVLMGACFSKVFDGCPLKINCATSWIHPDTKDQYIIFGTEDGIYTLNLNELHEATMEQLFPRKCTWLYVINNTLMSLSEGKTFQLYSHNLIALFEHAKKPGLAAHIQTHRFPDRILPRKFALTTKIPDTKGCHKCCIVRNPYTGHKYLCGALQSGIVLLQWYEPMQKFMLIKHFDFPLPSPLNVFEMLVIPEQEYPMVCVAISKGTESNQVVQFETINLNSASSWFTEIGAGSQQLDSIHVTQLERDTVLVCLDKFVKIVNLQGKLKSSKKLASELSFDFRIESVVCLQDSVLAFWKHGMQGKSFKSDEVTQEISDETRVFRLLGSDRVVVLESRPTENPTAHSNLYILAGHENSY
How it was run: as §1

[4] = target: 140 purified human kinases (Homo sapiens, UniProt P53779)
Chain of 140 purified human kinases (Homo sapiens, UniProt P53779) (P53779 whole entry): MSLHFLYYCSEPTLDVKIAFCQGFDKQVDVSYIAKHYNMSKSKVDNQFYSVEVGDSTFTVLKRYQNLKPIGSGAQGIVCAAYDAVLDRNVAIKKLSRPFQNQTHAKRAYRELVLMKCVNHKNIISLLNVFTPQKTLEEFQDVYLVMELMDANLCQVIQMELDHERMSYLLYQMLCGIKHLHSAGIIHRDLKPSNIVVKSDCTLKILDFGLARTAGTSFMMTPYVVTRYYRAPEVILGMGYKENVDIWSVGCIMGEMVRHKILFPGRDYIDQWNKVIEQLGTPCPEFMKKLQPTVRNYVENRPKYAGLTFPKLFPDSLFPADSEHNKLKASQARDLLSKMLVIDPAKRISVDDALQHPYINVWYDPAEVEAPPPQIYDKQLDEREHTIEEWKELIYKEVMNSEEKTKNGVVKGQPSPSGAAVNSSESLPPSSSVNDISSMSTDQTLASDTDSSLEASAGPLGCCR
How it was run: as §1

[5] = target: 140 purified human kinases (Homo sapiens, UniProt Q5TCY1)
Chain of 140 purified human kinases (Homo sapiens, UniProt Q5TCY1) (Q5TCY1 whole entry): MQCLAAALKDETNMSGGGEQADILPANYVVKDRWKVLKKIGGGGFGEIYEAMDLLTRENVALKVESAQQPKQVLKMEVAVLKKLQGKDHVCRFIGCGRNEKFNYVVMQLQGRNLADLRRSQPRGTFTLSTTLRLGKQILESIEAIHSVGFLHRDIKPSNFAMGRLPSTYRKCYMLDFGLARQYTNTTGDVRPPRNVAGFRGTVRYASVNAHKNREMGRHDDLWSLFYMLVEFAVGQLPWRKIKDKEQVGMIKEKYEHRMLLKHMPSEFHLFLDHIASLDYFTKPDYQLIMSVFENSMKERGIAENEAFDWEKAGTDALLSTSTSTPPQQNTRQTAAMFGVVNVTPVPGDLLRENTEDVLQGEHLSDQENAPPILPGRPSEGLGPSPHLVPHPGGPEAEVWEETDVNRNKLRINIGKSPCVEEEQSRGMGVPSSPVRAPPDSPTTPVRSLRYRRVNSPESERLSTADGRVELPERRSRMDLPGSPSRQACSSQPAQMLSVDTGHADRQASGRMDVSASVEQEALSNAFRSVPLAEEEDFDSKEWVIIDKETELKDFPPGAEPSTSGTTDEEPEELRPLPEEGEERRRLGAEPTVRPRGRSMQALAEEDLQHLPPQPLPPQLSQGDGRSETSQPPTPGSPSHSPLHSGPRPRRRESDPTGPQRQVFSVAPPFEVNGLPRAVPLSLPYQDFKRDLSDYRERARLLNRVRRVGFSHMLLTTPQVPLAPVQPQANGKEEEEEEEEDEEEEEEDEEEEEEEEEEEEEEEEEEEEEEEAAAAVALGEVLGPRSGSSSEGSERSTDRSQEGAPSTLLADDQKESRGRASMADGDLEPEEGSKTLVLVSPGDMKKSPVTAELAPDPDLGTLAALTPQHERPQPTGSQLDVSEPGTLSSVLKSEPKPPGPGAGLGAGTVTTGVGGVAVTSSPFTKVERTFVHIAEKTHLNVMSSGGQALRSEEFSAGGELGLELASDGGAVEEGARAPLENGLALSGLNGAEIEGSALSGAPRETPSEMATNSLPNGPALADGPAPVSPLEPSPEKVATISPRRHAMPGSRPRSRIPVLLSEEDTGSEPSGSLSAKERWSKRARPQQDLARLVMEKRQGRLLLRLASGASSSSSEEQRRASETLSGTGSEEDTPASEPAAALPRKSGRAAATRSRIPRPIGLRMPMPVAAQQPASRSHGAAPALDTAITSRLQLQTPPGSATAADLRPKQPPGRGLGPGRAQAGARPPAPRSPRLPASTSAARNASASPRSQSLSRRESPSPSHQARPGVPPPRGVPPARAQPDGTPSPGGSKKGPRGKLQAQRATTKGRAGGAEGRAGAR
How it was run: as §1

[6] = target: T2, 140 purified human kinases (Homo sapiens, UniProt Q96L34)
T2 sequence (Q96L34 1-752): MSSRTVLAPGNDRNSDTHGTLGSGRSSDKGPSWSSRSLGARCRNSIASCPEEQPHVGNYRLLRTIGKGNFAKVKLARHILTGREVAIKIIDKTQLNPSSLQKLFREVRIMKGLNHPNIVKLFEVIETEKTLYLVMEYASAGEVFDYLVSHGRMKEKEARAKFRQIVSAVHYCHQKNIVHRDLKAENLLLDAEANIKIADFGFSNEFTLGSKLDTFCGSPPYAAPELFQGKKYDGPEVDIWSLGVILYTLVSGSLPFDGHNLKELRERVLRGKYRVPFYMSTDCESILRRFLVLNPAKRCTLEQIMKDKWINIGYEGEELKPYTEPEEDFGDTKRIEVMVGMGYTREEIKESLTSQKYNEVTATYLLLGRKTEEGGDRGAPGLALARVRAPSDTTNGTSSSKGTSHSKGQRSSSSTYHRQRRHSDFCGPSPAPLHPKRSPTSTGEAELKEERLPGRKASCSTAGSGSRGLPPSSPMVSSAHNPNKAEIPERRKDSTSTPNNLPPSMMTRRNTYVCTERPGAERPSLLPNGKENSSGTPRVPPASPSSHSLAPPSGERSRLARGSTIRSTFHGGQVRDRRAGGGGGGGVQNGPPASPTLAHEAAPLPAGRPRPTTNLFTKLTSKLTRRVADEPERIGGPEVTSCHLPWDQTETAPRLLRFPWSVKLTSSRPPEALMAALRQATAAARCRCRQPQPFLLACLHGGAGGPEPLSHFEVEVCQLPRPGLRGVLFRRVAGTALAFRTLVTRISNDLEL
How it was run: as §1

[7] = target: T3, 140 purified human kinases (Homo sapiens, UniProt Q13188)
T3 sequence (Q13188 1-491): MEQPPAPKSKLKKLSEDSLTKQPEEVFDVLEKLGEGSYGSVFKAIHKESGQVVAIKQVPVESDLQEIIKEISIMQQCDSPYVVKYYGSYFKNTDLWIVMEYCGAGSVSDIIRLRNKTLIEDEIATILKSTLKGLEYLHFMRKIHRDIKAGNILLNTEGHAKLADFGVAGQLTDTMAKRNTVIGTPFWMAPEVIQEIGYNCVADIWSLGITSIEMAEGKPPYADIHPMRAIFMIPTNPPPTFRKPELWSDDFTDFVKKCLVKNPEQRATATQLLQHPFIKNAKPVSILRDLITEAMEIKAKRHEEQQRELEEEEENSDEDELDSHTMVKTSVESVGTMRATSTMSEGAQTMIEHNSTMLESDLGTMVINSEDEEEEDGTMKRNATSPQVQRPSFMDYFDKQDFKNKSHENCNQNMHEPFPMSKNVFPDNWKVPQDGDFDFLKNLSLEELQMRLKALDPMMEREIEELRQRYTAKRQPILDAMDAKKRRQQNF
How it was run: as §1

[8] = target: 140 purified human kinases (Homo sapiens, UniProt Q9P0L2)
Chain of 140 purified human kinases (Homo sapiens, UniProt Q9P0L2) (Q9P0L2 whole entry): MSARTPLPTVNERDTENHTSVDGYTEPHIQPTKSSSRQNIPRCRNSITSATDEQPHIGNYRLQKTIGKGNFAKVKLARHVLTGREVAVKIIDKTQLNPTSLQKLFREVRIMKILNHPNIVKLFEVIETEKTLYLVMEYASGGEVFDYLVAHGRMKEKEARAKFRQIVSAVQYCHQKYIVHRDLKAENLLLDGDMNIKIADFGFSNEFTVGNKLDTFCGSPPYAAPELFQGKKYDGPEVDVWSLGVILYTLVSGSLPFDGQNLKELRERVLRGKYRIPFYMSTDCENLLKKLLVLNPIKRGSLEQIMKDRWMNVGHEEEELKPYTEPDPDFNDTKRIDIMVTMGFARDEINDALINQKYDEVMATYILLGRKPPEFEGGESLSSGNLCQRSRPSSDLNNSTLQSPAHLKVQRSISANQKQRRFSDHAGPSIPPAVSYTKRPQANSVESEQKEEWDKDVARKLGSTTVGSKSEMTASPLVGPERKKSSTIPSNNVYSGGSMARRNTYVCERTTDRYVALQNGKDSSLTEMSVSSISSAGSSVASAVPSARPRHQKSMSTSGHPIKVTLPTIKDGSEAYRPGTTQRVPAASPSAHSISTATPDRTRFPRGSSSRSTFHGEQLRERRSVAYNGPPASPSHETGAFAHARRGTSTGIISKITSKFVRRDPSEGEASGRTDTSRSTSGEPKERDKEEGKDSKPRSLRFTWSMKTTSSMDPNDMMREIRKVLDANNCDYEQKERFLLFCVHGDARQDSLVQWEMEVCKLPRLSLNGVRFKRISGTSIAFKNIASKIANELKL
How it was run: as §1

Question: For `CC(=O)[O-].CC(=O)[O-].CC(=O)[O-].CC(=O)[O-].CC(=O)[O-].CC(=O)[O-].[Zn+2].[Zn+2].[Zn+2].c1ccc(-c2csc(NCCN(CCNc3nc(-c4ccccn4)cs3)CCNc3nc(-c4ccccn4)cs3)n2)nc1.c1ccc(-c2csc(NCCN(CCNc3nc(-c4ccccn4)cs3)CCNc3nc(-c4ccccn4)cs3)n2)nc1` [[L2Zn3]6+], which “% Inhibition, Mean” value ([1]; MINK1) is on record?
Answer: 67%

Question: What about the “% Inhibition, Run 1 / Run 2” value ([1]; MINK1) of the same compound?
Answer: 72% and 62%

Question: What about the mean % activity ([1]; MINK1) of the same compound?
Answer: 33%

Question: What about the “% activity” value ([1]; MINK1, duplicate runs) of the same compound?
Answer: 28% and 38%

Question: And the “% Inhibition, Mean” value ([2]; IRAK4)?
Answer: 10%

Question: And the “% Inhibition, Run 1 / Run 2” value ([2]; IRAK4)?
Answer: 13% and 7%

Question: And the mean % activity ([2]; IRAK4)?
Answer: 90%

Question: What about the “% activity” value ([2]; IRAK4, duplicate runs) of the same compound?
Answer: 87% and 93%

Question: And the “% Inhibition, Mean” value ([3]; MAP4K5)?
Answer: 60%

Question: And the “% Inhibition, Run 1 / Run 2” value ([3]; MAP4K5)?
Answer: 60% and 59%

Question: And the mean % activity ([3]; MAP4K5)?
Answer: 40%

Question: And the “% activity” value ([3]; MAP4K5, duplicate runs)?
Answer: 40% and 41%

Question: What about the “% Inhibition, Mean” value ([4]; JNK3) of the same compound?
Answer: 33%

Question: And the “% Inhibition, Run 1 / Run 2” value ([4]; JNK3)?
Answer: 42% and 24%

Question: What about the mean % activity ([4]; JNK3) of the same compound?
Answer: 67%

Question: And the “% activity” value ([4]; JNK3, duplicate runs)?
Answer: 58% and 76%

Question: And the “% Activation, Mean value” ([5]; TTBK1)?
Answer: 8%

Question: And the “% Inhibition, Mean” value ([5]; TTBK1)?
Answer: -8%

Question: And the mean % activity ([5]; TTBK1)?
Answer: 108%

Question: And the “% activity” value ([5]; TTBK1, duplicate runs)?
Answer: 97% and 119%

Question: What about the “% Inhibition, Mean” value ([6]; MARK4) of the same compound?
Answer: 39%

Question: And the “% Inhibition, Run 1 / Run 2” value ([6]; MARK4)?
Answer: 48% and 31%

Question: And the mean % activity ([6]; MARK4)?
Answer: 61%

Question: What about the “% activity” value ([6]; MARK4, duplicate runs) of the same compound?
Answer: 52% and 70%

Question: And the “% Inhibition, Mean” value ([7]; MST2)?
Answer: 10%

Question: And the “% Inhibition, Run 1 / Run 2” value ([7]; MST2)?
Answer: 14% and 6%

Question: What about the mean % activity ([7]; MST2) of the same compound?
Answer: 90%

Question: And the “% activity” value ([7]; MST2, duplicate runs)?
Answer: 86% and 94%

Question: What about the “% Inhibition, Mean” value ([8]; MARK1) of the same compound?
Answer: 23%

Question: What about the “% Inhibition, Run 1 / Run 2” value ([8]; MARK1) of the same compound?
Answer: 26% and 20%

Question: And the mean % activity ([8]; MARK1)?
Answer: 77%

Question: And the “% activity” value ([8]; MARK1, duplicate runs)?
Answer: 74% and 80%

Question: For `[Cu+2].[Cu+2].[Cu+2].c1ccc(-c2csc(NCCN(CCNc3nc(-c4ccccn4)cs3)CCNc3nc(-c4ccccn4)cs3)n2)nc1.c1ccc(-c2csc(NCCN(CCNc3nc(-c4ccccn4)cs3)CCNc3nc(-c4ccccn4)cs3)n2)nc1` [[L2Cu3]6+], which “% Inhibition Run 1” value ([1]; MINK1) is on record?
Answer: 70%

Question: And the “% Inhibition Run 2” value ([1]; MINK1)?
Answer: 78.2%

Question: And the “% Inhibition, Mean” value ([1]; MINK1)?
Answer: 74%

Question: And the mean % activity ([1]; MINK1)?
Answer: 26%

Question: And the “% activity” value ([1]; MINK1, Run 1)?
Answer: 30%

Question: And the “% activity” value ([1]; MINK1, Run 2)?
Answer: 21.8%

Question: And the “% Inhibition Run 1” value ([2]; IRAK4)?
Answer: 53.9%

Question: And the “% Inhibition Run 2” value ([2]; IRAK4)?
Answer: 65.2%

Question: What about the “% Inhibition, Mean” value ([2]; IRAK4) of the same compound?
Answer: 60%

Question: And the mean % activity ([2]; IRAK4)?
Answer: 40%

Question: And the “% activity” value ([2]; IRAK4, Run 1)?
Answer: 46.1%

Question: What about the “% activity” value ([2]; IRAK4, Run 2) of the same compound?
Answer: 34.8%

Question: And the “% Inhibition Run 1” value ([3]; MAP4K5)?
Answer: 54.5%

Question: What about the “% Inhibition Run 2” value ([3]; MAP4K5) of the same compound?
Answer: 51.4%

Question: What about the “% Inhibition, Mean” value ([3]; MAP4K5) of the same compound?
Answer: 53%

Question: And the mean % activity ([3]; MAP4K5)?
Answer: 47%

Question: And the “% activity” value ([3]; MAP4K5, Run 1)?
Answer: 45.5%

Question: What about the “% activity” value ([3]; MAP4K5, Run 2) of the same compound?
Answer: 48.6%

Question: And the “% Inhibition Run 1” value ([4]; JNK3)?
Answer: 62%

Question: What about the “% Inhibition Run 2” value ([4]; JNK3) of the same compound?
Answer: 41.6%

Question: And the “% Inhibition, Mean” value ([4]; JNK3)?
Answer: 52%

Question: What about the mean % activity ([4]; JNK3) of the same compound?
Answer: 48%

Question: What about the “% activity” value ([4]; JNK3, Run 1) of the same compound?
Answer: 38%

Question: And the “% activity” value ([4]; JNK3, Run 2)?
Answer: 58.4%

Question: And the “% Activation, Mean value” ([5]; TTBK1)?
Answer: 9%

Question: And the “% Inhibition Run 1” value ([5]; TTBK1)?
Answer: 10%

Question: What about the “% Inhibition Run 2” value ([5]; TTBK1) of the same compound?
Answer: -27.8%

Question: What about the “% Inhibition, Mean” value ([5]; TTBK1) of the same compound?
Answer: -9%

Question: And the mean % activity ([5]; TTBK1)?
Answer: 109%

Question: What about the “% activity” value ([5]; TTBK1, Run 1) of the same compound?
Answer: 90%

Question: What about the “% activity” value ([5]; TTBK1, Run 2) of the same compound?
Answer: 127.8%

Question: And the “% Inhibition Run 1” value ([6]; MARK4)?
Answer: 52.1%

Question: What about the “% Inhibition Run 2” value ([6]; MARK4) of the same compound?
Answer: 52.2%

Question: What about the “% Inhibition, Mean” value ([6]; MARK4) of the same compound?
Answer: 52%

Question: And the mean % activity ([6]; MARK4)?
Answer: 48%

Question: And the “% activity” value ([6]; MARK4, Run 1)?
Answer: 47.9%

Question: What about the “% activity” value ([6]; MARK4, Run 2) of the same compound?
Answer: 47.8%

Question: What about the “% Inhibition Run 1” value ([7]; MST2) of the same compound?
Answer: 38.8%

Question: And the “% Inhibition Run 2” value ([7]; MST2)?
Answer: 41.9%

Question: What about the “% Inhibition, Mean” value ([7]; MST2) of the same compound?
Answer: 40%

Question: What about the mean % activity ([7]; MST2) of the same compound?
Answer: 60%

Question: And the “% activity” value ([7]; MST2, Run 1)?
Answer: 61.2%

Question: And the “% activity” value ([7]; MST2, Run 2)?
Answer: 58.1%

Question: What about the “% Inhibition Run 1” value ([8]; MARK1) of the same compound?
Answer: 26.5%

Question: What about the “% Inhibition Run 2” value ([8]; MARK1) of the same compound?
Answer: 16.9%

Question: And the “% Inhibition, Mean” value ([8]; MARK1)?
Answer: 22%

Question: What about the mean % activity ([8]; MARK1) of the same compound?
Answer: 78%

Question: And the “% activity” value ([8]; MARK1, Run 1)?
Answer: 73.5%

Question: What about the “% activity” value ([8]; MARK1, Run 2) of the same compound?
Answer: 83.1%
